In patent US20250281489A1, “BIOMARKERS FOR PREDICTING SENSITIVITY TO CANCER TREATMENTS” (Genentech, Inc., priority 2011, published 2025):
Values belong to the compound of their own block, whether it stands above or below them.

Legend:
[1] = system: AKT1 kinase domain reconstituted with WT PH domain; assay: in vitro biochemical reconstitution assay, WT PH domain added to kinase domain
Procedure: (§1) To confirm that the reduced sensitivity of the mutants to allosteric inhibitors was due to the impaired PH-KD interactions, an in vitro biochemical reconstitution assay was performed using purified recombinant PH and kinase domains.

[2] = biological target: T1, WT PH domain reconstituted with mutant D323H kinase domain (Homo sapiens, UniProt P31749, D323H); assay: in vitro biochemical reconstitution assay, WT PH domain with D323H kinase domain; settings: in words
T1 construct: using purified recombinant PH and kinase domains
T1 sequence (P31749 150-408 D323H limits assumed): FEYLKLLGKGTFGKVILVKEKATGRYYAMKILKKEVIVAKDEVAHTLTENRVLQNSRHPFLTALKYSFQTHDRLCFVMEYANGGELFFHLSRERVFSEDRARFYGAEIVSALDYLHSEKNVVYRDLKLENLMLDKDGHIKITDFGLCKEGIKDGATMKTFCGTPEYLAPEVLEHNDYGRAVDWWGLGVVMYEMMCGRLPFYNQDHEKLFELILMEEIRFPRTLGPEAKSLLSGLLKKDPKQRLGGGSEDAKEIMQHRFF
Procedure: as §1

[3] = biological target: T2, AKT1 kinase domain alone (Homo sapiens, UniProt P31749); assay: in vitro biochemical assay, AKT1 kinase domain alone; settings: purified recombinant kinase domain, no PH domain
T2 construct: using purified recombinant PH and kinase domains
T2 sequence (P31749 150-408 limits assumed): as the sequence (P31749 150-408 D323H limits assumed) above, with H174D counted along it
Procedure: as §1

[4] = system: NIH3T3 cells expressing WT or AKT1 mutants; assay: cell based proliferation assay, NIH3T3 cells expressing WT or AKT1 mutants
From the text: (§2) Several ATP-competitive and allosteric small molecule inhibitors of AKT are in development and/or clinical trials (Mattmann et al., (2011). Expert Opin Ther Pat.; Pal et al., (2010). Expert Opin Investig Drugs 19, 1355-1366). Previous studies have shown that allosteric inhibitors of AKT require the presence of an intact PH-KD interface for their activity. Given that some AKT1 somatic mutants have impaired PH-KD contacts, it was predicted that allosteric inhibitors are likely to be less efficacious in inhibiting the activity of these mutants.

[5] = system: mutant AKT1 enzymes (E17K, L52R and D323H); assay: biochemical activity assay, recombinant full-length mutant AKT1 enzymes; settings: in words
From the text: as §2

[6] = biological target: T3, WT AKT1 enzyme (Homo sapiens, UniProt P31749); assay: biochemical activity assay, recombinant full-length WT AKT1 enzyme; settings: in words
T3 construct: were tested on recombinant full-length WT and mutant AKT1 enzymes
T3 sequence (P31749 whole entry): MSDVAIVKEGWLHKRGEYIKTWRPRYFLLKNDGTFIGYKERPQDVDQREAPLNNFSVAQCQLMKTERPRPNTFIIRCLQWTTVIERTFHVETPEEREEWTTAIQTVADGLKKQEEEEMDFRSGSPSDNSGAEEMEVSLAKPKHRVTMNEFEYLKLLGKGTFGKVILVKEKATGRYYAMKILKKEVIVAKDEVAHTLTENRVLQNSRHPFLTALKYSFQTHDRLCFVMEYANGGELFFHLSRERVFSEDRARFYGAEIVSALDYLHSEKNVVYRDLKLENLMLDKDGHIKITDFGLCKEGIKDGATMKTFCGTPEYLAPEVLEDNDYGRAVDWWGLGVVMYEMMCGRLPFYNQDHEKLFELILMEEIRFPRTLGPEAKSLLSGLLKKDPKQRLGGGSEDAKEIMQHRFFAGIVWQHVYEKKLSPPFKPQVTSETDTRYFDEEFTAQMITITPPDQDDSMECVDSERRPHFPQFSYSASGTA
From the text: Several ATP-competitive and allosteric small molecule inhibitors of AKT are in development and/or clinical trials (Mattmann et al., (2011). Expert Opin Ther Pat.; Pal et al., (2010). Expert Opin Investig Drugs 19, 1355-1366).

[7] = combo screens with 5FU/Cisplatin; format: cell-based; settings: combination with Cisplatin+5FU; associated with PTEN, pAKT, PI3K mutation
From the text: FIG. 15 depicts results that the combination effects of GDC-0068 with Cisplatin+5FU are associated with AKT pathway activation.

[8] = system: xenograft models; assay: single agent activity in xenograft models; format: in vivo; settings: models with AKT pathway activation and without MEK pathway activation
[9] = system: pPRAS40; assay: reverse phase protein arrays of tumor biopsies from patients: pPRAS40; format: in vivo, human; settings: all 3 patients treated at 400 mg daily
Procedure: (§3) Core-needle tumor biopsies from patients treated with GDCC0068 were flash-frozen in OCT and sectioned into 8 um slices. Tissue was lysed in RPPA lysis buffer containing TPER, 300 mM NaCl and phosphatase inhibitors. Phosphoprotein signatures of the lysates were analysed using Reverse-Phase protein arrays: samples were printed on nitrocellulose slides and stained with Sypro to determine total protein concentrations. Each slide was stained with a different antibody at 4° C. overnight. The data was then normalized to total protein levels and spatial effects were removed using Quadrant median normalization. Decreases of 60%-70% in pPRAS40 and ˜50% decrease in Cyclin D1 (compared with baseline) occurred in all 3 patients treated at 400 mg daily. For methods and overview of RPPA see: Reverse phase protein microarrays advance to use in clinical trials, Molecular Oncology. 2010 December; 4(6):461-81, Mueller C et al. In certain embodiments, the cancer to be treated herein comprises one or more of AKT, PI3k, PTEN and HER2 mutations or AKT, PI3k, PTEN or HER2 abberant signaling. In one example, the cancer is gastric cancer comprising high pAKT activity and PTEN low or null status.

[10] = system: Cyclin D1; assay: reverse phase protein arrays of tumor biopsies from patients: Cyclin D1; format: in vivo, human; settings: all 3 patients treated at 400 mg daily
Procedure: as §3

[11] = system: cell lines with AKT pathway activation (PTEN loss, PI3K mutations); assay: combination with MEK inhibitor in cell lines, BLISS analysis; format: cell-based; settings: in combination with a MEK inhibitor (GDC-0973)
From the text: BLISS analysis indicates broad synergy for GDC-0068 in combination with a MEK inhibitor (GDC-0973).

[12] = system: pGSK-3β; assay: surrogate PD biomarker assay: phospho-GSK-3β in platelet rich plasma of patients; format: in vivo, human; settings: doses≥200 mg, ratio to pre-dose
Procedure: Phospho-GSK-3b in Platelet rich plasma (PRP) was used as a surrogate PD biomarker to measure Akt pathway inhibition in patients after treatment with GDC-0068 at different time points over 22 days. Peripheral blood was collected in Vacutainer containing 0.38% of citrate as anti-coagulant. Blood was spun at 200 g for 15 min at room temperature. The PRP layer was carefully taken from the tube and then lysed in a buffer containing detergents, protease and phosphatase inhibitors. Phosphorylated and total GSK-3β levels in PRP lysates were measured using a phospho-GSK3β/total-GSK30 multiplexed MSD assay. pGSk-3β levels were normalized to total GSk-3β levels and post-dose inhibition of pGSk-3β was expressed as a ratio of the pre-dose levels for each patient.

SMILES: O=c1[nH]c2ccccc2n1C1CCN(Cc2ccc(-c3nc4cc5[nH]cnc5cc4nc3-c3ccccc3)cc2)CC1 [Inhibitor VIII]
increase in IC50 for the reconstituted enzyme compared to the full length WT enzyme [1]: three fold
IC50 ([1]; reconstituted enzyme, WT PH domain + kinase domain): 0.239 µM
activity when WT PH domain was reconstituted with mutant D323H kinase domain [2]: no activity
blocking activity of AKT1 kinase domain alone [3]: unable to block its activity
less effective at blocking proliferation of cells expressing mutant AKT1 compared to WT AKT [4]: at least 50%

effectiveness against recombinant full-length mutant enzymes compared to WT AKT1 [5]: less effective
SMILES: NC(=O)[C@@H]1CCCCN1CCCN(C(=O)c1cccs1)c1nc(-c2ccncc2)cs1 [GNE-929]

blocking the activity of the WT AKT1 enzyme [6]: effective
blocking the activity of the mutant enzymes ([5]; E17K, L52R and D323H): effective
SMILES: CCn1c(-c2nonc2N)nc2c(C#CC(C)(C)O)ncc(OC[C@H]3CCCNC3)c21 [GSK690693]

SMILES: CC(C)NC[C@@H](C(=O)N1CCN(c2ncnc3c2[C@H](C)C[C@H]3O)CC1)c1ccc(Cl)cc1 [GDC-0068]
combination effect [7]: additive effects
single agent efficacy in xenograft models [8]: Robust efficacy
decrease in pPRAS40 compared with baseline [9]: 60%-70%
decrease in Cyclin D1 compared with baseline [10]: ~50%
combination effect, BLISS analysis [11]: broad synergy
decrease in pGSK3β level [12]: ≥ 75%
